We go through 3 compounds from patent publication US10138490B2, “Transformed plants tolerant to herbicides due to overexpression of prephenate dehydrogenase and p-hydroxyphenylpyruvate dioxygenase” (priority 2002, dated 2018).

Type in all cases: in vivo
The subject of test [1] is ARA9-PDH tobacco lines (overexpressing PDH and HPPD). Description: Tolerance to HPPD inhibitors: sowing on increasing concentrations of DKN, doubly transformed lines. An excerpt:
(§1) The tolerance of the transformed plants is studied by sowing on a soil treated with diketonitrile (DKN).
(§2) 13 ARA9-PDH lines and the PBD6-ARA9 line that was used as starting material for the transformation were sown on increasing concentrations of DKN:5, 10 and 32 ppm.

Test [2] concerns PBD6-ARA9 tobacco line (overexpressing A. thaliana HPPD). Put plainly: Tolerance to HPPD inhibitors: sowing on increasing concentrations of DKN, parental line.
Text: as §1, §2

The next test has as its system ARA9-PDH18 tobacco line. Description: Tolerance to sulcotrione and to mesotrione, ARA9-PDH18 line. How it is done:
as §2
The same experiment was carried out with the HPPD inhibitors sulcotrione and mesotrione.

The test system of test [3] is wild-type tobacco line of the Petit Havana type. Description: Tolerance to sulcotrione and to mesotrione, wild-type line.

As for `CS(=O)(=O)c1cc(C(F)(F)F)ccc1C(=O)C(C#N)C(=O)C1CC1` (centres unmarked) [DKN], the “response of lines sown on DKN” value was “resistant” in test [1] (5 ppm DKN, all 13 ARA9-PDH lines); “resist well” in test [1] (10 ppm DKN, all ARA9-PDH lines except ARA9-PDH4); “resistant and grow normally” in test [1] (32 ppm DKN, ARA9-PDH lines that were resistant to 10 ppm). In addition, the “response of line sown on DKN” value is “inhibited” in test [1] (10 ppm DKN, ARA9-PDH4 line); “resistant” in test [2] (5 ppm DKN); “completely inhibited” in test [2] (10 ppm DKN); “completely inhibited” in test [2] (32 ppm DKN).
Regarding `CS(=O)(=O)c1ccc(C(=O)C2C(=O)CCCC2=O)c(Cl)c1` [sulcotrione], in the test on ARA9-PDH18 tobacco line, the “concentration of HPPD inhibitor the line is tolerant to” value was 6 µM. For the same compound, the “concentration of HPPD inhibitor the line is sensitive to” value in test [3] stood at 0.375 µM.
Taken in the same sequence, the figures for `CS(=O)(=O)c1ccc(C(=O)C2C(=O)CCCC2=O)c([N+](=O)[O-])c1` [mesotrione] were 3 µM and 0.375 µM.
